Reference: the NIST ThermoML archive (doi:10.1016/j.jct.2017.02.022)

Columns and labels:
[1] = refractive index (Na D-line) (dimensionless); xn = mol fraction of the nth substance listed; settings: 101.3 kPa, Liquid, Standard Abbe refractometry
[2] = xn = mol fraction of the nth substance listed; settings: 101.3 kPa, Liquid; for speed of sound: Frequency=3 MHz, Sing-around technique in a fixed-path interferometer; for mass density: Vibrating tube method

CCn1cc[n+](C)c1.COS(=O)(=O)[O-] [1-ethyl-3-methylimidazolium methylsulfate] + CCCO
Settings | mass density, [2] [kg/m3] | refractive index, [1] | speed of sound, [2] [m/s]
298 K, x1 = 0.059 | 864 | 1.394 | 1247
298 K, x1 = 0.228 | 1003 | 1.419 | 1377
298 K, x1 = 0.375 | 1090 | 1.435 | 1487
298 K, x1 = 0.524 | 1156 | 1.448 | 1588
298 K, x1 = 0.72 | 1223 | 1.463 | 1681
298 K, x1 = 0.874 | 1264 | 1.473 | 1730
298 K, x1 = 1 | 1292 | 1.48 | 1762
303 K, x1 = 0.059 | 859 | 1.393 | 1230
303 K, x1 = 0.228 | 998 | 1.417 | 1362
303 K, x1 = 0.375 | 1085 | 1.433 | 1473
303 K, x1 = 0.524 | 1152 | 1.446 | 1574
303 K, x1 = 0.72 | 1219 | 1.461 | 1668
303 K, x1 = 0.874 | 1260 | 1.471 | 1717
303 K, x1 = 1 | 1289 | 1.479 | 1750
308 K, x1 = 0.059 | 855 | 1.391 | 1214
308 K, x1 = 0.228 | 993 | 1.415 | 1347
308 K, x1 = 0.375 | 1080 | 1.431 | 1458
308 K, x1 = 0.524 | 1148 | 1.444 | 1560
308 K, x1 = 0.72 | 1215 | 1.459 | 1654
308 K, x1 = 0.874 | 1257 | 1.469 | 1704
308 K, x1 = 1 | 1285 | 1.478 | 1739
313 K, x1 = 0.059 | 851 | 1.389 | 1197
313 K, x1 = 0.228 | 989 | 1.413 | 1332
313 K, x1 = 0.375 | 1076 | 1.428 | 1443
313 K, x1 = 0.524 | 1143 | 1.442 | 1546
313 K, x1 = 0.72 | 1211 | 1.457 | 1641
313 K, x1 = 0.874 | 1253 | 1.468 | 1692
313 K, x1 = 1 | 1282 | 1.476 | 1727
